Measurements published in patent US20250066310A1, “MULTI-SUBSTITUTED URACIL DERIVATIVE AND PREPARATION METHOD THEREFOR AND APPLICATION THEREOF” (HANGZHOU ADAMERCK PHARMLABS INC., priority 2021, published 2025).
Marks after values point to notes of the source that are not given here.

Columns and labels:
[1] = tested on: acute inflammatory response caused by ellagic acid (serum cytokines); test: Antibody microarray detection of serum factors in ellagic acid model mice; assay type: in vivo, ICR mice; parameters: TNFa / IL-6 / IL-1b / IL-5 / IL-13 / IL-1α / IL-1β / IL-2 / IL-3 / IL-4 / IFNg / CD40: unit not given here
Protocol: Experimental methods: ICR male mice, weighed about 25 g, were randomly divided into four groups: normal group, ellagic acid model group, 1-1 group, and 1-22 group, with four mice in each group. Mice in 1-1 group and 1-22 group were given 1-1, 100 mg/kg and 1-22, 100 mg/kg by gavage once a day respectively. 1 h after the third administration, except for the normal control group, the other three groups of mice were injected into the tail vein with 0.10 mL/10 g of 0.3% ellagic acid saline solution, and 1 h after injection, whole blood was collected from each animal, and centrifuged (3,000 rpm/min) for 10 min after 30 min of standing, and then centrifuged to obtain the serum. The serum from each group of animal was mixed in an EP tube, transported at −80° C., and sent for antibody microarray detection.

[2] = tested on: rats with myocardial ischemia-reperfusion injury; test: Myocardial ischemia-reperfusion injury caused by coronary artery ligation in rats; assay type: in vivo; conditions: x ± s, n = 8; for Pathological Score: myocardium
Protocol: Experimental Methods: A model of myocardial ischemia/reperfusion (MI/R) injury caused by coronary artery ligation was established in rats, and animals were grouped into high-dose (20 mg/kg), medium-dose (10 mg/kg), low-dose (5 mg/kg) of the test drug, clopidogrel (7.5 mg/kg), sham, and model groups. Equal volume of 0.5% CMC-Na was administered at 0.5 ml/100 g body weight in both sham and model groups. The drug was administered by gavage (i.g.) once a day for 5 consecutive days. Modeling was performed 30 min after the last administration, and after modeling, 8 successfully modeled rats were selected from each group for subsequent experiments. The sham group was placed a wire under the left anterior descending branch of the coronary artery according to the model preparation method without ligation, and the other groups were modeled according to the model preparation method. The effects of the test drugs on the cardiac infarction rate and the biochemical indexes of creatine kinase (CK), lactate dehydrogenase (LDH), malondialdehyde (MDA), and superoxide dismutase (SOD) in plasma were detected, and TTC staining of the heart was performed to detect the effects of the test drugs on the area of myocardial infarction in MI/R rats.

[3] = tested on: ICR mice; test: Effect on in vivo bleeding time in mice (tail cut); conditions: 100 mg/kg i.g. once daily for 4 days
Protocol: A normal control group (blank), positive control group (clopidogrel) and experimental groups were set up with 10 ICR mice (male, weighed about 25 g) in each group. Animals in each group were administered the corresponding drug solution by oral gavage (i.g.) at 0.1 ml/10 g body weight, and the blank control group was given distilled water, once daily for 4 days. On the 4th day, 1 h after the administration of the drug, the animals were anesthetized by intraperitoneal injection of sodium barbiturate at a dose of about 50 mg/kg, and 20 min later, the tails of the mice were cut at a distance of 3 mm from the tip of the tail, and at regular intervals, absorbent paper was used to dip the blood at the severed tails until no blood exuded, which was recorded as the bleeding time, and the results of the experiment were shown in Table 2.
Calculation equation for prolongation of bleeding time: […]

[4] = tested on: rats with focal permanent cerebral ischemia (MCAO); test: Focal permanent cerebral ischemic injury (MCAO), administration from 3 h post-ischemia; assay type: in vivo, SD rats; conditions: for Number of survivors after 15 days animal: 15 enrolled; for Mortality (%): 15-day; for Neurological function score on day 15: Bederson's method; for Weight on day 1 / Weight on day 5 / Weight on day 15: mean body weight
[5] = tested on: rats with autologous thrombus and thrombin-induced cerebral ischemic injury; test: Ischemic brain injury induced by autologous thrombus and thrombin in rats (i.v., alone or with urokinase); assay type: in vivo, SD rats; conditions: n = 10
Protocol: Experimental Methods: A model of cerebral ischemic injury in SD rats was prepared by embolizing the middle cerebral artery of rats with autologous thrombus and thrombin via the external carotid artery to the internal carotid artery and the rats were randomly divided into 5 groups according to behavioral scores, a sham group (only the external carotid artery was isolated); a model-control group (saline was given to both groups in equal volume); urokinase (5000 U/kg) group; compound 1-1 ([…]) group; with 20 animals in each group (10 for detecting the rate of cerebral infarction, and the other 10 for pathological testing). Each group was administered slowly in the tail vein (1 ml per minute) 2 h after modeling, and the decrease in blood flow was monitored after thrombin injection and 120 min after administration. Neurobehavioral scoring was performed on the rats after 24 h to determine the neurological function of the rats; 2,3,5-triphenyltetrazolium chloride (TTC) staining was used to determine the rate of cerebral infarction and cerebral water content, and hematoxylin-eosin (HE) staining was used to observe the pathological damage of the brain in rats administered with the drug 2 h after cerebral ischemia.

[6] = Table 16, pooled serum, 100 mg/kg by gavage
[7] = Table 17, pooled serum, 100 mg/kg by gavage
[8] = Table 18, pooled serum, 100 mg/kg by gavage
[9] = Table 19, pooled serum, 100 mg/kg by gavage
[10] = middle and high dose groups compared with the model group

## CCOC(=O)CCNC(=O)CCNc1cc(=O)n(C)c(=O)n1C [Compound 1-1]
[1]; [6]
  IL-6: 18,375.64*
  RANTES/ccl5: 2,825.89*
  TNFa: 386.79
[1]; Table 16, pooled serum, 100 mg/kg by gavage once a day x3, 1 h after ellagic acid
  IL-1b: 312.69
[1]; [7]
  IL-1α: 1,118.99*
  IL-1β: 312.69
  IL-2: 565.56
  IL-3: 1,106.55
  IL-4: 1,367.20
  IL-5: 285.74*
  IL-6: 18,375.64*
  IL-13: 800.30*
[1]; [8]
  Eotaxin/CCL11: 4,696.55
  MCP1/CCL2: 3,045.61
  MIP-3a/CCL20: 1,505.55*
  RANTES/CCL5: 2,825.89*
[1]; [9]
  CD40: 639.15
  IFNg: 295.07*
[1]; interleukin factors (Table 17), compared with the model group
  number of down-regulated differential proteins: four
[2]; 5 mg/kg i.g. once a day for 5 days
  Cardiac infarction rate (%): 12.12 ± 4.45 %
[2]; 10 mg/kg i.g. once a day for 5 days
  Cardiac infarction rate (%): 10.99 ± 2.39 %
[2]; 20 mg/kg i.g. once a day for 5 days
  Cardiac infarction rate (%): 7.27 ± 1.91**^ΔΔ %
[2]; 5 mg/kg i.g.
  Pathological Score: 2.00 ± 0.53
[2]; 10 mg/kg i.g.
  Pathological Score: 1.88 ± 0.83
[2]; 20 mg/kg i.g.
  Pathological Score: 1.75 ± 0.71
[2]; plasma, 5 mg/kg i.g.
  CK (U/mL): 0.33 ± 0.15 U/mL
  LDH (U/L): 5406.70 ± 458.93*^ΔΔ U/L
  MDA: 13.23 ± 2.89 nmol/mL
  SOD (U/mL): 28.29 ± 1.24 U/mL
[2]; plasma, 10 mg/kg i.g.
  CK (U/mL): 0.27 ± 0.11 U/mL
  LDH (U/L): 3732.06 ± 573.02**^ΔΔ U/L
  MDA (nmol/mL): 5.47 ± 1.71**^ΔΔ nmol/mL
  SOD (U/mL): 23.99 ± 2.80 U/mL
[2]; plasma, 20 mg/kg i.g.
  CK (U/mL): 0.08 ± 0.047 U/mL
  LDH (U/L): 4366.03 ± 782.76**^ΔΔ U/L
  MDA (nmol/mL): 8.77 ± 2.19**^ΔΔ nmol/mL
  SOD (U/mL): 41.02 ± 2.33 U/mL
[3]
  Bleeding time prolongation (%): −8.89%
[4]; 10 mg/kg by gavage once a day
  Number of survivors after 15 days animal: 8
[4]; 20 mg/kg by gavage once a day
  Number of survivors after 15 days animal: 11
[4]; 40 mg/kg by gavage once a day
  Number of survivors after 15 days animal: 10
[4]; 10 mg/kg by gavage
  Mortality (%): 46.67%
[4]; 20 mg/kg by gavage
  Mortality (%): 26.67%
[4]; 40 mg/kg by gavage
  Mortality (%): 33.33%
[4]; 10 mg/kg
  Neurological function score on day 15: 0.88
  Weight on day 1: 273.73 g
  Weight on day 5: 240.73 g
  Weight on day 15: 281.38 g
[4]; 20 mg/kg
  Neurological function score on day 15: 0.75
  Weight on day 1: 281.93 g
  Weight on day 5: 253.67 g
  Weight on day 15: 281.10 g
[4]; 40 mg/kg
  Neurological function score on day 15: 0.5
  Weight on day 1: 274.93 g
  Weight on day 5: 288.25 g
  Weight on day 15: 316.80 g
[4]; [10]
  infarction rate (TTC staining): significantly reduced
  water content: significantly reduced
[5]; 9 mg/kg i.v., TTC staining, mean ± S.D.
  Cerebral infarction rate: 14.99 ± 10.91
[5]; 9 mg/kg i.v., after 24 h, Mean ± SD
  behavioral score: 1.70 ± 0.82
[5]; 9 mg/kg i.v., mean ± S.D.
  cerebral water content (%): 80.32 ± 0.97 %
[5]; cerebral blood flow, 9 mg/kg i.v. 2 h after modeling, Mean ± SD
  Percentage decrease two hours after administration (%): 29.24 ± 2.67 %
[5]; cerebral blood flow, before administration, 9 mg/kg group, Mean ± SD
  Percentage decrease after thrombin injection (%): 39.18 ± 4.75%
[5]; cerebral ischemic areas, 9 mg/kg i.v., mean ± SD
  Pathology Score: 2.20 ± 1.01
